Tests used:
[1] = test system: beet armyworm (Spodoptera exigua); assay: Insecticidal test on treated lepidopteran diet, beet armyworm; type: in vivo; conditions: 120 h, second-instar larvae on treated diet, 8 wells, dose of 50 mg/cm^2 [sic] (2000 ppm, 50 μL), dead insects counted 5 days after treatment, read-out: AVG LAPHEG 50 (percent control, beet army worm)
Description: (§1) The compounds identified in Table 1 were prepared according to the previous methods and were tested against beet armyworm and corn earworm as follows:
(§2) Insecticidal Test for Corn Earworm (Helicoverpa zea) and Beet Armyworm (Spodoptera exigua).
(§3) To prepare test solution, the test compound was formulated at 2000 ppm solution as 4 mg/2 mL of 9 acetone:1 tap water. 50 μL of the 2000 ppm (equivalent to 50 μg/cm^2 dose on diet surface area) test solution was pipetted upon the surface of 1 mL of lepidopteran diet (Southland Multi-Species Lepidopteran Diet) contained in each of eight wells per insect species (one well=1 replication). A second-instar corn earworm and beet armyworm was placed upon the treated diet in each well once the solvent had air-dried. Trays containing the treated diet and larvae were covered and then held in a growth chamber at 25° C., 50-55% RH, and 16 hr light:8 hr dark for 5 days. Observation were conducted 5 days after treatment and infestation. The number of dead insects of 8 per species per treatment was then determined and the results are given in Table 1 as a percent control at a dose of […].
(§4) Keys to the table: Mass spectral data were obtained using liquid chromatography mass spectroscopy (LC-MS). The masses are detected using electrospray ionization (ESI) and reported as Mol Ion (M+H, M−H); AVG LAPHEG 50 refers to activity against beet army worm (Spodoptera exigua) as defined above; AVG HELIZE 50 refers to activity against corn ear worm (Helicoverpa zea) as described above.

[2] = test system: corn earworm (Helicoverpa zea); assay: Insecticidal test on treated lepidopteran diet, corn earworm; type: in vivo; conditions: 120 h; second-instar larvae on treated diet, 8 wells; dose of 50 mg/cm^2 [sic] (2000 ppm, 50 μL); dead insects counted 5 days after treatment; read-out: AVG HELIZE 50 (percent control, corn ear worm)
Description: as §1, §2, §3, §4

| Compound | pest or weed control at 2000 µg/mL [1] | pest or weed control at 2000 µg/mL [2] |
| --- | --- | --- |
| FC(F)C(F)(F)Oc1ccc(/C=N/Nc2nc(Nc3ccc(OC(F)(F)F)cc3)nc(N3CCOCC3)n2)cc1 [Compound 1, (4-Morpholin-4-yl-6-{N′-[4-(1,1,2,2-tetrafluoroethoxy)benzylidene]hydrazino}-1,3,5-triazin-2-yl)-(4-trifluoromethoxyphenyl)amine] | 100% | 100% |
| Fc1ccc(Nc2nc(NCc3ccc(Cl)nc3)nc(N/N=C/c3ccc(OC(F)(F)F)cc3)n2)cc1C(F)(F)F [Compound 2, N-(6-Chloropyridin-3-ylmethyl)-N′-(4-fluoro-3-trifluoromethylphenyl)-6-{N′-[1-(4-trifluoromethoxyphenyl)-methylidene]-hydrazino}-[1,3,5]triazine-2,4-diamine] | 100% | 100% |
| Fc1ccc(Nc2ncnc(N/N=C/c3ccc(OC(F)(F)F)cc3)n2)cc1C(F)(F)F [Compound 3, (4-Fluoro-3-trifluoromethylphenyl)-(4-{N′-[1-(4-trifluoromethoxyphenyl)-methylidene]-hydrazino}-[1,3,5]triazin-2-yl)-amine] | 100% | 100% |
| FC(F)(F)Oc1ccc(/C=N/Nc2nc(Nc3ccc(OC(F)(F)F)cc3)nc(N3CCOCC3)n2)cc1 [Compound 4] | 100% | 100% |
| C/C(=N\Nc1nc(Nc2ccc(OC(F)(F)F)cc2)nc(N2CCOCC2)n1)c1cccc(C#N)c1 [Compound 5] | 100% | 100% |
| O=C1CN(c2nc(N/N=C/c3ccc(OC(F)(F)F)cc3)nc(Nc3ccc(OC(F)(F)F)cc3)n2)CCN1 [Compound 6] | 100% | 100% |
| O=C1CN(c2nc(N/N=C/c3cccc(C(F)(F)F)c3)nc(Nc3ccc(OC(F)(F)F)cc3)n2)CCN1 [Compound 7] | 100% | 100% |
| CCOc1nc(N/N=C/c2ccc(OC(F)(F)F)cc2)nc(Nc2ccc(OC(F)(F)F)cc2)n1 [Compound 8] | 25% | 25% |
| CCOc1nc(N/N=C/c2cccc(C(F)(F)F)c2)nc(Nc2ccc(OC(F)(F)F)cc2)n1 [Compound 10] | 13% | 0% |
| CCOc1nc(N/N=C/c2ccc(F)cc2)nc(Nc2ccc(OC(F)(F)F)cc2)n1 [Compound 11] | 13% | 100% |
| CCOc1nc(N/N=C/c2ccc(OC(F)(F)F)cc2)nc(Nc2cccc(C(F)(F)F)c2)n1 [Compound 12] | 100% | 100% |
| CCOc1nc(N/N=C/c2cccc(C(F)(F)F)c2)nc(Nc2cccc(C(F)(F)F)c2)n1 [Compound 13] | 0% | 75% |
| CCOc1nc(N/N=C/c2ccc(OC)cc2)nc(Nc2cccc(C(F)(F)F)c2)n1 [Compound 14] | 25% | 13% |
| COCCNc1nc(N/N=C/c2ccc(OC(F)(F)F)cc2)nc(Nc2ccc(OC(F)(F)F)cc2)n1 [Compound 15] | 100% | 88% |
| CCNc1nc(N/N=C/c2ccc(OC(F)(F)F)cc2)nc(Nc2ccc(OC(F)(F)F)cc2)n1 [Compound 16] | 13% | 0% |
| COCCNc1nc(N/N=C/c2ccc(F)cc2)nc(Nc2ccc(OC(F)(F)F)cc2)n1 [Compound 17] | 50% | 63% |
| CCNc1nc(N/N=C/c2ccc(F)cc2)nc(Nc2ccc(OC(F)(F)F)cc2)n1 [Compound 18] | 75% | 38% |
| COCCNc1nc(N/N=C/c2ccc(OC(F)(F)F)cc2)nc(Nc2cccc(C(F)(F)F)c2)n1 [Compound 19] | 100% | 75% |
| FC(F)(F)Oc1ccc(/C=N/Nc2nc(NCCN3CCOCC3)nc(Nc3ccc(OC(F)(F)F)cc3)n2)cc1 [Compound 21] | 100% | 100% |
| COCCN(C)c1nc(N/N=C/c2ccc(OC(F)(F)F)cc2)nc(Nc2ccc(OC(F)(F)F)cc2)n1 [Compound 22] | 50% | 13% |
| CCOC(=O)CN(C)c1nc(N/N=C/c2ccc(OC(F)(F)F)cc2)nc(Nc2ccc(OC(F)(F)F)cc2)n1 [Compound 23] | 25% | 0% |
| COCC(C)Nc1nc(N/N=C/c2ccc(OC(F)(F)F)cc2)nc(Nc2ccc(OC(F)(F)F)cc2)n1 (stereo not shown) [Compound 24] | 100% | 100% |

| Compound | pest or weed control at 2000 µg/mL [1] | pest or weed control at 2000 µg/mL [2] |
| --- | --- | --- |
| CCOCCNc1nc(N/N=C/c2ccc(OC(F)(F)F)cc2)nc(Nc2ccc(OC(F)(F)F)cc2)n1 [Compound 25] | 100% | 100% |
| CCOC(=O)CNc1nc(N/N=C/c2ccc(OC(F)(F)F)cc2)nc(Nc2ccc(OC(F)(F)F)cc2)n1 [Compound 26] | 50% | 100% |
| FC(F)(F)COc1nc(N/N=C/c2cccc(Cl)c2)nc(Nc2ccc(OC(F)(F)F)cc2)n1 [Compound 27] | 100% | 100% |
| FC(F)C(F)(F)Oc1cccc(/C=N/Nc2nc(Nc3ccc(OC(F)(F)F)cc3)nc(OCC(F)(F)F)n2)c1 [Compound 28] | 100% | 100% |
| FC(F)(F)COc1nc(N/N=C/c2cccc(Br)c2)nc(Nc2ccc(OC(F)(F)F)cc2)n1 [Compound 29] | 100% | 100% |
| FC(F)(F)COc1nc(N/N=C/c2ccc(Cl)c(Cl)c2)nc(Nc2ccc(OC(F)(F)F)cc2)n1 [Compound 30] | 100% | 100% |
| Fc1ccccc1/C=N/Nc1nc(Nc2ccc(OC(F)(F)F)cc2)nc(OCC(F)(F)F)n1 [Compound 31] | 100% | 100% |
| FC(F)(F)COc1nc(N/N=C/c2ccccc2C(F)(F)F)nc(Nc2ccc(OC(F)(F)F)cc2)n1 [Compound 32] | 100% | 100% |
| Fc1cc(/C=N/Nc2nc(Nc3ccc(OC(F)(F)F)cc3)nc(OCC(F)(F)F)n2)ccc1Cl [Compound 33] | 100% | 100% |
| FC(F)(F)COc1nc(N/N=C/c2ccccc2Br)nc(Nc2ccc(OC(F)(F)F)cc2)n1 [Compound 34] | 100% | 100% |
| FC(F)(F)COc1nc(N/N=C/c2c(Cl)cccc2Cl)nc(Nc2ccc(OC(F)(F)F)cc2)n1 [Compound 35] | 100% | 100% |
| FC(F)(F)COc1nc(N/N=C/c2ccccc2OC(F)(F)F)nc(Nc2ccc(OC(F)(F)F)cc2)n1 [Compound 36] | 100% | 100% |
| FC(F)(F)Oc1ccc(Nc2nc(N/N=C/c3cccc(Cl)c3)nc(N3CCOCC3)n2)cc1 [Compound 37] | 75% | 100% |
| FC(F)(F)Oc1ccc(Nc2nc(N/N=C/c3cccc(Br)c3)nc(N3CCOCC3)n2)cc1 [Compound 38] | 0% | 100% |
| FC(F)(F)Oc1ccc(Nc2nc(N/N=C/c3ccc(Cl)c(Cl)c3)nc(N3CCOCC3)n2)cc1 [Compound 39] | 88% | 100% |
| FC(F)(F)Oc1ccc(Nc2nc(N/N=C/c3ccc(Cl)cc3Cl)nc(N3CCOCC3)n2)cc1 [Compound 40] | 25% | 0% |
| FC(F)(F)Oc1ccc(Nc2nc(N/N=C/c3ccccc3C(F)(F)F)nc(N3CCOCC3)n2)cc1 [Compound 41] | 13% | 0% |
| Fc1cc(/C=N/Nc2nc(Nc3ccc(OC(F)(F)F)cc3)nc(N3CCOCC3)n2)ccc1Cl [Compound 42] | 88% | 100% |
| FC(F)(F)Oc1ccc(Nc2nc(N/N=C/c3ccccc3Br)nc(N3CCOCC3)n2)cc1 [Compound 43] | 13% | 0% |
| FC(F)(F)Oc1ccc(Nc2nc(N/N=C/c3c(Cl)cccc3Cl)nc(N3CCOCC3)n2)cc1 [Compound 44] | 13% | 0% |
| FC(F)(F)Oc1ccc(Nc2nc(N/N=C/c3ccccc3OC(F)(F)F)nc(N3CCOCC3)n2)cc1 [Compound 45] | 38% | 13% |
| CC1CN(c2nc(N/N=C/c3ccc(OC(F)(F)F)cc3)nc(Nc3ccc(F)c(C(F)(F)F)c3)n2)CC(C)O1 (stereo not shown) [Compound 46] | 100% | 100% |
